Reference: publication PMC9774939, “Optimization of Pyrazole Compounds as Antibiotic Adjuvants Active against Colistin- and Carbapenem-Resistant Acinetobacter baumannii” (Antibiotics, 2022)

Legend:
[1] = tested on: eight reference strains, Gram-positive and Gram-negative; assay: Agar diffusion test, direct antibacterial activity; assay type: cell-based; settings: eight reference strains
Experimental: Compounds 3–40, 42, 44–47, and 49 (Scheme 1, Scheme 2, Scheme 3, Scheme 4 and Scheme 5) were subjected to a detailed investigation of their direct and synergistic antibacterial activity and potential cytotoxicity by using several methods. The direct antibacterial activity of these compounds was determined using both agar diffusion and broth microdilution methods. The former was initially used to identify potentially active compounds and was tested on eight reference strains, with representatives of both Gram-positive and Gram-negative clinically relevant bacterial species or genera (Figure 4).
The compounds were provided as powders and dissolved in 100% DMSO at a final concentration of 50 mg/mL. When a compound was not soluble, DMSO was further added to lower the concentration to 25 mg/mL or, when necessary, 12.5 or 6.25 mg/mL, until the compound was completely solubilized. The primary screen used in the evaluation of the direct antibacterial activity through an agar diffusion test was implemented on a 8-channel, automated liquid-handling platform (PerkinElmer Janus Integrator, Waltham, Mass.), which was located under a custom-made class 1000 laminar flow cabinet (Faster, Cornaredo, Italy). Briefly, 1-well plates (Thermo Fisher Scientific, Waltham, Mass.), previously filled with Mueller–Hinton Agar medium, were inoculated with a suspension of the bacterium in a sterile 0.9% NaCl solution containing 1.5 × 10^8 CFU/mL, using a sterile swab. Indicator organisms included 4 Gram-positive (Bacillus subtilis ATCC 6633, Enterococcus faecalis ATCC 29212, Staphylococcus epidermidis ATCC 14990, and Streptococcus pyogenes ATCC 12344) and 4 Gram-negative (Escherichia coli CCUG^T, Klebsiella pneumoniae ATCC 13833, Pseudomonas aeruginosa ATCC 27853, and Acinetobacter baumannii ATCC 17978) strains, which were routinely propagated using Mueller–Hinton Agar plates. In total, 2 μL of each solution of compounds was dispensed on the plate surface (corresponding to 100, 50, 25, or 12.5 μg of compound according to its solubility). The controls included the solvent (100% DMSO), kanamycin, piperacillin, ceftazidime, vancomycin, and teicoplanin. The results were recorded as the diameter of the growth inhibition zone. The inhibition zones of the controls (max variation from expected diameter, ± 1 mm) were used as the validation criteria. The assays were performed at least in duplicate, and the position in which a single compound was spotted on the plate was randomly modified in any successive experiment.

[2] = tested on: bacterial reference strains; assay: Broth microdilution MIC, direct activity; assay type: cell-based
Experimental: (§1) The minimum inhibitory concentration (MIC) and minimum bactericidal concentration (MBC) of the compounds were determined in triplicate using Mueller–Hinton broth and a bacterial inoculum of 5 × 10^5 CFU/mL, as recommended by the CLSI [26]. The minimum antibacterial concentration (MAC) of the compounds was determined in the presence of a fixed and subinhibitory concentration of colistin (as mentioned above).

[3] = tested on: Klebsiella pneumoniae ATCC 13833; assay: MAC determination in the presence of subinhibitory colistin; assay type: cell-based; parameters: key to MAC Kpn: -: No synergistic activity; settings: for MAC Kpn: in the presence of 0.5 × MIC colistin; for MIC/MAC Ratio Kpn: minimal ratio of MIC of compound alone to MAC with 0.5 × MIC colistin
Experimental: as §1

Escherichia coli CCUG^T = assay: as above; assay type: cell-based; parameters: key to MAC Eco: -: No synergistic activity; settings: for MAC Eco: in the presence of 0.5 × MIC colistin; for MIC/MAC Ratio Eco: minimal ratio of MIC of compound alone to MAC with 0.5 × MIC colistin
Experimental: as §1

[4] = tested on: Acinetobacter baumannii ATCC 17978; assay: as above; assay type: cell-based; parameters: key to MAC Aba: -: No synergistic activity; settings: for MAC Aba: in the presence of 0.5 × MIC colistin; for MIC/MAC Ratio Aba: minimal ratio of MIC of compound alone to MAC with 0.5 × MIC colistin
Experimental: as §1

| melting point [°C] | SMILES | MAC Kpn [3] | MAC Eco (Escherichia coli CCUG^T) | MAC Aba [4] | also measured |
| --- | --- | --- | --- | --- | --- |
| 137 to 138 | Cc1c(C(=O)NC23CC4CC(CC(O)(C4)C2)C3)nn(-c2ccccc2)c1-n1cccc1 [Compound 27, N-(Adamantan-3-ol-1-yl)-4-methyl-1-phenyl-5-(1H-pyrrol-1-yl)-1H-pyrazole-3-carboxamide] | 32 µg/mL | 32 µg/mL | - | MIC/MAC Ratio Kpn [3]: 16; MIC/MAC Ratio Eco (Escherichia coli CCUG^T): 16 |
| 178 to 182 | Cc1c(C(=O)N2CCN(C)CC2)nn(-c2ccc(Cl)cc2)c1-n1cccc1 [Compound 28, [1-(4-Chlorophenyl)-4-methyl-5-(1H-pyrrol-1-yl)-1H-pyrazol-3-yl](4-methylpiperazin-1-yl)methanone] | 64 µg/mL | 64 µg/mL | 64 µg/mL | MIC/MAC Ratio Kpn [3]: 8; MIC/MAC Ratio Eco (Escherichia coli CCUG^T): 8; MIC/MAC Ratio Aba [4]: 8 |
| 174 to 177 | Cc1c(C(=O)N2CCOCC2)nn(-c2ccc(Cl)cc2)c1-n1cccc1 [Compound 30, [1-(4-Chlorophenyl)-4-methyl-5-(1H-pyrrol-1-yl)-1H-pyrazol-3-yl](morpholin-4-yl)methanone] |  |  |  |  |
| 165 to 167 | O=C(NN1CCCCC1)c1cnn(-c2ccccc2)c1-n1cccc1 [Compound 5, 1-Phenyl-N-(piperidin-1-yl)-5-(1H-pyrrol-1-yl)-1H-pyrazole-4-carboxamide] |  |  |  |  |
| 227 to 229 | N#Cc1c(C(=O)NC23CC4CC(CC(C4)C2)C3)nn(-c2ccccc2)c1-n1cccc1 |  |  |  |  |
| 207 to 210 | Cc1c(C(=O)Nc2nc(-c3ccc(F)cc3)cs2)nn(-c2ccc(Cl)c(Cl)c2)c1-n1cccc1 [Compound 37, 1-(3,4-Dichlorophenyl)-N-[4-(4-fluorophenyl)thiazol-2-yl]-4-methyl-5-(1H-pyrrol-1-yl)-1H-pyrazole-3-carboxamide] |  |  |  |  |
| 72 to 81 | Cc1c(C(=O)N[C@@H](Cc2ccccc2)C(=O)OC(C)(C)C)nn(-c2c(Cl)cc(Cl)cc2Cl)c1-n1c(C)ccc1C [Compound 39, tert-Butyl (S)-3-Phenyl-2-[[[4-methyl-1-(2,4,6-trichlorophenyl)-5-(2,5-dimethyl-1H-pyrrol-1-yl)-1H-pyrazol-3-yl]carbonyl]amino]propanoate] | - | - | 32 µg/mL | MIC/MAC Ratio Aba [4]: 16 |
| 102 to 105 | CSc1ccc(NC(=O)c2nn(-c3ccc(Cl)cc3)c(-n3cccc3)c2C)cc1 [Compound 48, 1-(4-Chlorophenyl)-N-(4-methylthiophenyl)-4-methyl-5-(1H-pyrrol-1-yl)-1H-pyrazole-3-carboxamide] |  |  |  |  |
|  | Cc1c(C(=O)N(CCO)Cc2ccccc2)nn(-c2ccc(Cl)cc2)c1-n1cccc1 [Compound 31, N-Benzyl-1-(4-chlorophenyl)-N-(2-hydroxyethyl)-4-methyl-5-(1H-pyrrol-1-yl)-1H-pyrazole-3-carboxamide] | 16 µg/mL | 32 µg/mL | 32 µg/mL | MIC/MAC Ratio Kpn [3]: 32; MIC/MAC Ratio Eco (Escherichia coli CCUG^T): 16; MIC/MAC Ratio Aba [4]: 16 |
| 139 to 141 | COC(=O)CNC(=O)c1cnn(-c2ccccc2)c1-n1cccc1 [Compound 11, Methyl [[[1-Phenyl-5-(1H-pyrrol-1-yl)-1H-pyrazol-4-yl]carbonyl]amino]acetate] |  |  |  |  |
| 156 to 158 | CN1CCN(C(=O)c2cnn(-c3ccccc3)c2-n2cccc2)CC1 [Compound 4, (4-Methylpiperazin-1-yl)[1-phenyl-5-(1H-pyrrol-1-yl)-1H-pyrazol-4-yl]methanone] |  |  |  |  |
| 130 to 131 | CCOC(=O)N1CCN(C(=O)c2nn(-c3ccccc3)c(-n3cccc3)c2C)CC1 [Compound 26, (4-Ethoxycarbonylpiperazin-1-yl)[4-methyl-1-phenyl-5-(1H-pyrrol-1-yl)-1H-pyrazol-3-yl]methanone] |  |  |  |  |
| 90 to 92 | CCOC(=O)[C@H](C)NC(=O)c1cnn(-c2ccccc2)c1-n1cccc1 [Compound 12, Ethyl (S)-2-[[[1-Phenyl-5-(1H-pyrrol-1-yl)-1H-pyrazol-4-yl]carbonyl]amino]propanoate] |  |  |  |  |
| 197 to 198 | O=C(Nc1ccc(Cl)cc1)c1cnn(-c2ccccc2)c1-n1cccc1 [Compound 6, N-(4-Chlorophenyl)-1-phenyl-5-(1H-pyrrol-1-yl)-1H-pyrazole-4-carboxamide] |  |  |  |  |
| 141 to 145 | Cc1c(C(=O)NCc2ccc3c(c2)OCO3)nn(-c2ccc(Cl)c(Cl)c2)c1-n1c(C)ccc1C [Compound 38, N-(Benzo[d][1,3]dioxol-5-ylmethyl)-1-(3,4-dichlorophenyl)-4-methyl-5-(2,5-dimethyl-1H-pyrrol-1-yl)-1H-pyrazole-3-carboxamide] |  |  |  |  |
| 75 to 78 | CCOC(=O)[C@@H](NC(=O)c1cnn(-c2ccccc2)c1-n1cccc1)C(C)C [Compound 13, Ethyl (S)-3-Methyl-2-[[[1-phenyl-5-(1H-pyrrol-1-yl)-1H-pyrazol-4-yl]carbonyl]amino]butanoate] | 32 µg/mL | 64 µg/mL | - | MIC/MAC Ratio Kpn [3]: 16; MIC/MAC Ratio Eco (Escherichia coli CCUG^T): 8 |

| SMILES | melting point [°C] | MAC Kpn [3] | MAC Eco (Escherichia coli CCUG^T) | MAC Aba [4] | also measured |
| --- | --- | --- | --- | --- | --- |
| CC(C)[C@H](NC(=O)c1cnn(-c2ccccc2)c1-n1cccc1)C(=O)O [Compound 17, (S)-3-Methyl-2-[[[1-phenyl-5-(1H-pyrrol-1-yl)-1H-pyrazol-4-yl]carbonyl]amino]butanoic Acid] | 150 to 152 |  |  |  | direct-acting antibacterial activity (agar diffusion) [1]: broad-spectrum, though moderate, direct-acting antibacterial activity; MIC [2]: ≥ 512 µg/mL |
| O=C(O)CNC(=O)c1cnn(-c2ccccc2)c1-n1cccc1 [Compound 15, [[[1-Phenyl-5-(1H-pyrrol-1-yl)-1H-pyrazol-4-yl]carbonyl]amino]acetic Acid] | 191 to 194 |  |  |  | direct-acting antibacterial activity (agar diffusion) [1]: broad-spectrum, though moderate, direct-acting antibacterial activity; MIC [2]: ≥ 512 µg/mL |
| C[C@H](NC(=O)CNC(=O)c1cnn(-c2ccccc2)c1-n1cccc1)C(=O)O [Compound 19, N-[N-[[1-Phenyl-5-(1H-pyrrol-1-yl)-1H-pyrazol-4-yl]carbonyl]glycyl]-L-alanine] | 80 to 84 |  |  |  | direct-acting antibacterial activity (agar diffusion) [1]: broad-spectrum, though moderate, direct-acting antibacterial activity; MIC [2]: ≥ 512 µg/mL |
| CC(C)(C)OC(=O)Nc1c(C(=O)NCc2ccc(-c3ccc(OC(F)(F)F)cc3)cn2)cnn1-c1ccc([N+](=O)[O-])cc1 [Compound 22, 5-(tert-Butoxycarbonylamino)-1-(4-nitrophenyl)-N-[[5-(4-trifluoromethoxyphenyl)pyridin-2-yl]methyl]-1H-pyrazole-4-carboxamide] | 197 to 199 | 64 µg/mL | - | 64 µg/mL | MIC/MAC Ratio Kpn [3]: 8; MIC/MAC Ratio Aba [4]: 8 |
| CC(C)(C)OC(=O)Nc1c(C(=O)NCc2ccc(Br)cc2)cnn1-c1ccccc1 [Compound 20, N-(4-Bromobenzyl)-5-(tert-butoxycarbonylamino)-1-phenyl-1H-pyrazole-4-carboxamide] | 175 to 176 | 64 µg/mL | - | 64 µg/mL | MIC/MAC Ratio Kpn [3]: 8; MIC/MAC Ratio Aba [4]: 8 |
| C[C@H](NC(=O)c1cnn(-c2ccccc2)c1-n1cccc1)C(=O)O [Compound 16, (S)-2-[[[1-Phenyl-5-(1H-pyrrol-1-yl)-1H-pyrazol-4-yl]carbonyl]amino]propanoic Acid] | 142 to 145 |  |  |  | direct-acting antibacterial activity (agar diffusion) [1]: broad-spectrum, though moderate, direct-acting antibacterial activity; MIC [2]: ≥ 512 µg/mL |
